Results on eleven molecules are retold here after publication PMC5846083 (Journal of Medicinal Chemistry, 2018).

A word on the IC50: it is the concentration that inhibits the measured activity by half. A lower IC50 goes with inhibition by little substance.

The test system of data set [1] is rat sperm. As to the kind of experiment: Rat sperm motility in vitro. It is filed as cell-based. Conditions: for maximum reduction of sperm motility: even at high concentrations.
The target in another data set is hERG (Homo sapiens, UniProt Q12809). As to the kind of experiment: hERG competitive displacement fluorescence polarization assay. Background: hERG is a cardiac potassium channel; its block is linked to QT prolongation.
The next data set has as its target Na,K-ATPase α4 (Rattus norvegicus, UniProt Q64541). Briefly: Inhibition of Na,K-ATPase α4 activity. The data set is classed as biochemical. To be noted: for reduced activity compared to ouabain: Na,K-ATPase α4 inhibition; for loss of Na,K-ATPase α4 inhibitory activity versus comparator: 29 versus 32, 19 versus 25; for IC50 for Na,K-ATPase α4 inhibition (Figure 1): recombinant rat α4, mean of two experiments in quadruplicate.

The subject of the next data set is human Na,K-ATPase α4. To be noted: human isoforms; cited from earlier work.
Data set [2] is described as follows: General toxicity in treated rats. Conditions: oral gavage, 5–20 mg/kg. The data set is classed as in vivo, rat.
Data set [3] relates to rat sperm. Briefly: Sperm hyperactivated motility under capacitating conditions. To be noted: 10^–8 M, 1 h, capacitating medium.
Data set [4] deals with rat sperm. Briefly: Sperm membrane potential. The data set is classed as cell-based. Conditions: 10^–8 M, 1 h.
For data set [5], the system named is rat sperm. As to the kind of experiment: Sperm intracellular Ca2+, Calcium Green. It is filed as cell-based. Conditions: 10^–8 M, 1 h.
Data set [6] concerns rat sperm. Briefly: Sperm intracellular pH, SNARF-1. It is filed as cell-based. To be noted: 10^–8 M, 1 h.

Na,K-ATPase α4, sequence (Q64541 whole entry, other chains not shown): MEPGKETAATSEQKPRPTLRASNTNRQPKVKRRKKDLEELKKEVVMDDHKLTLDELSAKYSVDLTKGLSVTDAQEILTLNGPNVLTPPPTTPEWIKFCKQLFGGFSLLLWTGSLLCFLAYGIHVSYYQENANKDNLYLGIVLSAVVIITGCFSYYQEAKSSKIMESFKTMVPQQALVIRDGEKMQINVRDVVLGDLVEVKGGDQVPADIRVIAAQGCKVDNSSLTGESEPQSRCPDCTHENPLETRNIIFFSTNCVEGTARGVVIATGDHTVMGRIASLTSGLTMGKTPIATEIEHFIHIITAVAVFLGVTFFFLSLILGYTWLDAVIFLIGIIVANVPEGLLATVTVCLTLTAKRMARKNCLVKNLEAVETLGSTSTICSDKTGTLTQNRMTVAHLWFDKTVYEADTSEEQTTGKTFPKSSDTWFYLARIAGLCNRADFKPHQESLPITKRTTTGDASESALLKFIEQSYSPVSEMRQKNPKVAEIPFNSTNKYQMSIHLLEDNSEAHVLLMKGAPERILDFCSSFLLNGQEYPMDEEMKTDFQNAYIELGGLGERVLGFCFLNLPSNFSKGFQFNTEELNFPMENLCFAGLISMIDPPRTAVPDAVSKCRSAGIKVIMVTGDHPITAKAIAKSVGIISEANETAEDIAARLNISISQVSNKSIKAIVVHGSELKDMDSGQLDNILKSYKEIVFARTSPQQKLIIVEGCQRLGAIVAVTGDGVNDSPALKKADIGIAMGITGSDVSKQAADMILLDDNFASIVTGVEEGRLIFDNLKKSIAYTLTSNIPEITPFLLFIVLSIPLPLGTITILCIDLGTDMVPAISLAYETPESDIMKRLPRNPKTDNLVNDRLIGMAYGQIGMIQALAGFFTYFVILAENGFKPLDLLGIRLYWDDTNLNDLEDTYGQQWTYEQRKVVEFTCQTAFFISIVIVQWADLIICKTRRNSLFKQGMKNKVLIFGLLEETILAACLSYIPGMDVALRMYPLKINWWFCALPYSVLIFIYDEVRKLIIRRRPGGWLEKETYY
hERG, sequence (Q12809 whole entry): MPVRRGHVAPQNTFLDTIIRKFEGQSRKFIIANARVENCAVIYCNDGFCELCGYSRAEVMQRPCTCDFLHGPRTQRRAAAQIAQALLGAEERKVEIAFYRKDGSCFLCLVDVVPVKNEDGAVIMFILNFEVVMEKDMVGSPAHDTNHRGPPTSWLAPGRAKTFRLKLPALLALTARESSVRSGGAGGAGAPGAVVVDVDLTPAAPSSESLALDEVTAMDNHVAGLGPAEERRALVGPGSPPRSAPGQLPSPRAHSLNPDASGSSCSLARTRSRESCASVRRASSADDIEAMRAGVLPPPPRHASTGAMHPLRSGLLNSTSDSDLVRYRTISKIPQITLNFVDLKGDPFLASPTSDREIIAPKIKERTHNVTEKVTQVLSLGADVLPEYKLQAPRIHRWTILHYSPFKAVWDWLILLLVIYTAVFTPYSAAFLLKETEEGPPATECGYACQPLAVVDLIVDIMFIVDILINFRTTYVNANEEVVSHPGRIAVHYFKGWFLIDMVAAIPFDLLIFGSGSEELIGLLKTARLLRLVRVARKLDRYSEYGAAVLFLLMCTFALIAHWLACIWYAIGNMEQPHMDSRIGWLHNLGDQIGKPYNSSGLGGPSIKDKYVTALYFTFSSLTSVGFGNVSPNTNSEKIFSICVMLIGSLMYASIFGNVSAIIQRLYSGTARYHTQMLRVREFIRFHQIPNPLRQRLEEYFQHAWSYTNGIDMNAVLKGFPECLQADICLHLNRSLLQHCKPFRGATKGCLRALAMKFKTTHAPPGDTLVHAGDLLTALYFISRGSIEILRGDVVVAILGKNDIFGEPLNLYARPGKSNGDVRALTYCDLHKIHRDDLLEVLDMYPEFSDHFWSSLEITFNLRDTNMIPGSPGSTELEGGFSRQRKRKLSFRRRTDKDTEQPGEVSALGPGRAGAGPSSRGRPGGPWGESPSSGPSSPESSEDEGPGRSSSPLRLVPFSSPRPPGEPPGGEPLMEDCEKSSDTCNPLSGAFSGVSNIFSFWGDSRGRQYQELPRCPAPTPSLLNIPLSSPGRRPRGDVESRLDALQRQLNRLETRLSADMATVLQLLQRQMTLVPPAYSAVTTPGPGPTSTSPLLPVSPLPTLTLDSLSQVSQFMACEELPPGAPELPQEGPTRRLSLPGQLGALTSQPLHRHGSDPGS

Take `COCO[C@H]1C[C@H]2OC(C)(C)OC[C@]23[C@@H]2[C@@H](CC[C@]3(O)C1)[C@@]1(OCOC)CC[C@H](CO)[C@@]1(C)C[C@H]2OCOC` [Compound 17, (3S,3aR,5R,5aS,5bR,9aR,11S,12aS,14aR,14bS)-3-(Hydroxymethyl)-5,11,14b-tris(methoxymethoxy)-3a,8,8-trimethyltetradecahydro-6H-cyclopenta[7,8]phenanthro[4,4a-d][1,3]dioxin-12a(1H)-ol]: in the data set on rat sperm [1] (1 h incubation), the “effect on other parameters of sperm movement (progressive motility, velocities, linearity, beat cross frequency)” value (“effect on other parameters” for short) was “directly block all parameters of sperm movement”. In addition, the “maximum reduction of sperm motility” value in the data set with rat sperm [1] was 50–60%. Besides, the IC50 on hERG is more than 60 µM.

In the case of `COCO[C@@H]1[C@H]2OC(C)(C)O[C@H]2[C@H](O[C@H]2C[C@H]3OC(C)(C)OC[C@]34[C@@H]3[C@@H](CC[C@]4(O)C2)[C@@]2(O)CC[C@H](C#N)[C@@]2(C)C[C@H]3OCOC)O[C@H]1C` [Compound 11, (3S,3aR,5R,5aS,5bR,9aR,11S,12aS,14aR,14bS)-12a,14b-Dihydroxy-5-(methoxymethoxy)-11-(((3aR,4R,6S,7S,7aR)-7-(methoxymethoxy)-2,2,6-trimethyltetrahydro-4H-[1,3]dioxolo[4,5-c]pyran-4-yl)oxy)-3a,8,8-trimethylhexadecahydro-6H-cyclopenta[7,8]phenanthro[4,4a-d][1,3]dioxine-3-carbonitrile], on Na,K-ATPase α4, the “reduced activity compared to ouabain” value is listed as “about 10 fold”.

For the molecule `COCO[C@H]1C[C@H]2OC(C)(C)OC[C@]23[C@@H]2[C@@H](CC[C@]3(O)C1)[C@@]1(OCOC)CC[C@H](C#N)[C@@]1(C)C[C@H]2OCOC` [Compound 29, (3S,3aR,5R,5aS,5bR,9aR,11S,12aS,14aR,14bS)-12a-Hydroxy-5,11,14b-tris(methoxymethoxy)-3a,8,8-trimethylhexadecahydro-6H-cyclopenta[7,8]phenanthro[4,4a-d][1,3]dioxine-3-carbonitrile], the “loss of Na,K-ATPase α4 inhibitory activity versus comparator” value on Na,K-ATPase α4 was 3 orders of magnitude.

For the molecule `C[C@@H]1O[C@@H](O[C@H]2C[C@@H](O)[C@]3(CO)[C@H]4[C@H](O)C[C@]5(C)[C@@H](C6=CC(=O)OC6)CC[C@]5(O)[C@@H]4CC[C@]3(O)C2)[C@H](O)[C@H](O)[C@H]1O` [ouabain], the “sensitivity to ouabain, human Na,K-ATPase α4 versus α1” value in the data set with human Na,K-ATPase α4 was approximately 100 fold.

On to `CO[C@H]1C[C@H](O[C@H]2CC[C@]3(C=O)[C@H]4CC[C@]5(C)[C@@H](C6=CC(=O)OC6)CC[C@]5(O)[C@@H]4CC[C@]3(O)C2)O[C@H](C)[C@H]1O` [cymarin, reference compound], for which, on Na,K-ATPase α4, the “IC50 for Na,K-ATPase α4 inhibition (Figure 1)” value is given as 10^–8 to 10^–9 M.

As for `COc1ccc(-c2cn(C[C@H]3CC[C@]4(O)[C@@H]5CC[C@]6(O)C[C@@H](O)C[C@@H](O)[C@]6(CO)[C@H]5[C@H](O)C[C@]34C)nn2)cc1` [Compound 19, (1R,3S,5S,8R,9S,10R,11R,13R,14S,17S)-10-(Hydroxymethyl)-17-((4-(4-methoxyphenyl)-1H-1,2,3-triazol-1-yl)methyl)-13-methyltetradecahydro-5H-cyclopenta[a]phenanthrene-1,3,5,11,14(2H)-pentaol], the “loss of Na,K-ATPase α4 inhibitory activity versus comparator” value on Na,K-ATPase α4 was 7 orders of magnitude.

With `C[C@]12CC[C@H]3[C@@H](CC[C@]4(O)C[C@@H](O)CC[C@]34C=O)[C@@]1(O)CC[C@@H]2C1=CC(=O)OC1` [strophanthidin, reference compound], the “IC50 for Na,K-ATPase α4 inhibition (Figure 1)” value at Na,K-ATPase α4 is recorded as 10^–8 to 10^–9 M.

Consider `COCO[C@@H]1[C@H]2OC(C)(C)O[C@H]2[C@H](O[C@H]2C[C@H]3OC(C)(C)OC[C@]34[C@@H]3[C@@H](CC[C@]4(O)C2)[C@@]2(O)CC[C@H](CO)[C@@]2(C)C[C@H]3OCOC)O[C@H]1C` [Compound 10, (3S,3aR,5R,5aS,5bR,9aR,11S,12aS,14aR,14bS)-3-(Hydroxymethyl)-5-(methoxymethoxy)-11-(((3aR,4R,6S,7S,7aR)-7-(methoxymethoxy)-2,2,6-trimethyltetrahydro-4H-[1,3]dioxolo[4,5-c]pyran-4-yl)oxy)-3a,8,8-trimethyltetradecahydro-6H-cyclopenta[7,8]phenanthro[4,4a-d][1,3]dioxine-12a,14b-diol], for which, in the data set on rat sperm [1] (1 h incubation), the “effect on other parameters” value is recorded as “directly block all parameters of sperm movement”. Besides, the “maximum reduction of sperm motility” value in the data set on rat sperm [1] is 50–60%. This molecule also showed an IC50 at hERG of more than 60 µM.

Consider `COCO[C@H]1C[C@H]2OC(C)(C)OC[C@]23[C@@H]2[C@@H](CC[C@]3(O)C1)[C@@]1(OCOC)CC[C@H](C(=O)O)[C@@]1(C)C[C@H]2OCOC` [Compound 32, (3S,3aR,5R,5aS,5bR,9aR,11S,12aS,14aR,14bS)-12a-Hydroxy-5,11,14b-tris(methoxymethoxy)-3a,8,8-trimethylhexadecahydro-6H-cyclopenta[7,8]phenanthro[4,4a-d][1,3]dioxine-3-carboxylic Acid], for which the “reduced activity compared to ouabain” value at Na,K-ATPase α4 is given as “about 10 fold”.

As to `C[C@]12C[C@@H](O)[C@H]3[C@@H](CC[C@]4(O)C[C@@H](O)C[C@@H](O)[C@]34CO)[C@@]1(O)CCC2c1cn(Cc2ccc(F)cc2)nn1` (mixture of isomers) [Compound 27, (1R,3S,5S,8R,9S,10R,11R,13R,14S,17S)-17-(1-(4-Fluorobenzyl)-1H-1,2,3-triazol-4-yl)-10-(hydroxymethyl)-13-methyltetradecahydro-5H-cyclopenta[a]phenanthrene-1,3,5,11,14(2H)-pentaol], the IC50 against Na,K-ATPase α4 stood at 0.03 µM. This lies in the double-digit nanomolar range.

For the molecule `C[C@]12C[C@@H](O)[C@H]3[C@@H](CC[C@]4(O)C[C@@H](O)C[C@@H](O)[C@]34CO)[C@@]1(O)CC[C@@H]2c1cn(Cc2ccccc2)nn1` [Compound 25, (1R,3S,5S,8R,9S,10R,11R,13R,14S,17S)-17-(1-Benzyl-1H-1,2,3-triazol-4-yl)-10-(hydroxymethyl)-13-methyltetradecahydro-5H-cyclopenta[a]phenanthrene-1,3,5,11,14(2H)-pentaol], the “toxic effect on treated rats” value in [2] is given as “did not exert any major toxic effect”. For the same molecule, in the data set with rat sperm [3], the “reduction of hyperactivation accompanying sperm capacitation” value is reported as “approximately 70%”. The “decrease of total sperm motility” value in the data set with rat sperm [1] (10^–8 M and higher, 1 h incubation) is “approximately 60%”. In the data set on rat sperm [1] (1 h incubation), the “effect on other parameters” value was “directly block all parameters of sperm movement”. For the same molecule, the “maximum reduction of sperm motility” value in the data set on rat sperm [1] is recorded as 50–60%. Also, the “increase of sperm Vm (plasma membrane depolarization)” value in the data set with rat sperm [4] is “approximately 40%”. Further, the IC50 on hERG was more than 60 µM. Besides, the “increase of [Ca2+]i in sperm” value in the data set with rat sperm [5] is on record as “approximately 40%”. Further, the “effect on sperm intracellular pH” value in the data set on rat sperm [6] was “caused intracellular sperm acidification”.
